Measurements taken from patent US20260007758A1, “SO[…]-2 RECEPTOR (SST2R) NON-PEPTIDE DRUG CONJUGATES AND USES THEREOF” (Crinetics Pharmaceuticals, Inc., priority 2024, published 2026).

Experiments:
Assay type in all cases: cell-based
SST2 = molecular target: T1, SST2 (Homo sapiens, UniProt P30874); assay: PathHunter CHO-K1 SST2 Internalization Assay; conditions: PathHunter CHO-K1 SST2 cells; 90 min at 37 C; luminescence; read-out: Internalization EC50
T1 construct: host or cells: PathHunter CHO-K1 SST2 cells
T1 sequence (P30874 whole entry): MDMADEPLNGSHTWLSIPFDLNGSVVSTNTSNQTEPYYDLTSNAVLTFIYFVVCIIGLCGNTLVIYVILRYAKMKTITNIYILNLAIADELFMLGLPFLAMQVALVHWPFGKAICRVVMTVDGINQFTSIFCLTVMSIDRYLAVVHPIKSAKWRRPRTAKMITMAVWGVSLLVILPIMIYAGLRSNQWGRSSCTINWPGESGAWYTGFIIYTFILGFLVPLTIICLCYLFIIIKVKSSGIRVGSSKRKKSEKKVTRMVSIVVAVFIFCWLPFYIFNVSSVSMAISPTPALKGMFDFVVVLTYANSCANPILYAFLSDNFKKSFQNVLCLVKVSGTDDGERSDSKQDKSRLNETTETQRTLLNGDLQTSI
How it was run: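 Four-parameter nonlinear fits of background-corrected luminescence (duplicate means) gave IC50s. NDCs were serially diluted 1:3 over 11 points from a 10 uM final top concentration and incubated 90 min at 37 C with human SST2 CHO-K1 cells plated 48 h earlier at 2500/well. Beta-Glo read-out developed 60 min at RT.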

[1] = tested on: NCI-H524 human small cell lung cancer cells; assay: H524 assay: inhibition of cell proliferation (CellTiter Glo); conditions: 2 h treatment, washout, additional 70 h incubation
How it was run: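 Proliferation was measured by CellTiter Glo 70 h after a washout that followed a 2 h pulse of NDC. Doses were an 11-point, two-fold dilution series from 1 uM. IC50 was fitted with a four-parameter model to luminescence-based % inhibition relative to control cells.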

[2] = molecular target: T2, human somatostatin receptor subtype 2 (Homo sapiens, UniProt P30874); assay: Functional assay for SSTR2 agonists (HTRF cAMP); conditions: CHO-K1 cells stably expressing human SST2; NKH477-stimulated cAMP; 20 min at 37 C; read-out: hSST2 cAMP Avg EC50
T2 construct: expressed in transfected cells
T2 sequence (P30874 whole entry): as above
How it was run: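 Agonist activity read as fall in intracellular cAMP: HTRF 665/620 nm ratio regressed to a cAMP standard curve, EC50 fitted. Stable human SSTR2 CHO-K1 cells exposed 20 min at 37 °C to compound, final concentrations typically 0-10,000 nM.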

Compound | EC50 (SST2) | EC50 [1] | EC50 [2]
CC[C@H](C)[C@@H]([C@@H](CC(=O)N1CCC[C@H]1[C@H](OC)[C@@H](C)C(=O)N[C@H](C)[C@@H](O)c1ccccc1)OC)N(C)C(=O)[C@@H](NC(=O)[C@H](C(C)C)N(C)C(=O)OCc1ccc(NC(=O)[C@H](C)NC(=O)[C@@H](NC(=O)CCOCCC(=O)NCCNc2ncc(-c3cc(C)cc(F)c3)c(N3CCC(N)CC3)c2-c2nc3cnccc3[nH]2)C(C)C)c(O[C@@H]2O[C@H](C(=O)O)[C@@H](O)[C@H](O)[C@H]2O)c1)C(C)C [Compound 127] | 290 nM | 170 nM | 1.6 nM
CC[C@H](C)[C@@H]([C@@H](CC(=O)N1CCC[C@H]1[C@H](OC)[C@@H](C)C(=O)N[C@H](C)[C@@H](O)c1ccccc1)OC)N(C)C(=O)[C@@H](NC(=O)[C@H](C(C)C)N(C)C(=O)OCc1ccc(NC(=O)[C@H](CCCNC(N)=O)NC(=O)[C@@H](NC(=O)c2cc(NCCOCCC(=O)NCCNc3ncc(-c4cc(C)cc(F)c4)c(N4CCC(N)CC4)c3-c3nc4ccc(Cl)cc4[nH]3)cc(C(=O)NCCC(=O)O)c2)C(C)C)cc1)C(C)C [Compound 145] | 17 nM | 78 nM | 0.38 nM
CC[C@H](C)[C@@H]([C@@H](CC(=O)N1CCC[C@H]1[C@H](OC)[C@@H](C)C(=O)N[C@H](C)[C@@H](O)c1ccccc1)OC)N(C)C(=O)[C@@H](NC(=O)[C@H](C(C)C)N(C)C(=O)OCc1ccc(NC(=O)[C@H](C)NC(=O)[C@@H](NC(=O)C[C@@H](N)C(=O)NCCOCCOCCC(=O)NCCNc2ncc(-c3cc(C)cc(F)c3)c(N3CCC(N)CC3)c2-c2nc3ccc(Cl)cc3[nH]2)C(C)C)c(O[C@@H]2O[C@H](C(=O)O)[C@@H](O)[C@H](O)[C@H]2O)c1)C(C)C [Compound 136] | 3.5 nM | 540 nM | 0.29 nM
CC[C@H](C)[C@@H]([C@@H](CC(=O)N1CCC[C@H]1[C@H](OC)[C@@H](C)C(=O)N[C@H](C)[C@@H](O)c1ccccc1)OC)N(C)C(=O)[C@@H](NC(=O)[C@H](C(C)C)N(C)C(=O)OCc1ccc(NC(=O)[C@H](CCCNC(N)=O)NC(=O)[C@@H](NC(=O)CCOCCOCCOCCOCCC(=O)NCCNc2ncc(-c3cc(C)cc(F)c3)c(N3CCC(N)CC3)c2-c2nc3ccc(Cl)cc3[nH]2)C(C)C)cc1C(=O)N1CC(C(=O)O)C1)C(C)C [Compound 67] | 5.5 nM | 85 nM | 0.086 nM
CC[C@H](C)[C@@H]([C@@H](CC(=O)N1CCC[C@H]1[C@H](OC)[C@@H](C)C(=O)N[C@H](C)[C@@H](O)c1ccccc1)OC)N(C)C(=O)[C@@H](NC(=O)C(C(C)C)N(C)C(=O)OCc1ccc(NC(=O)[C@H](CCCNC(N)=O)NC(=O)[C@@H](NC(=O)CCOCCC(=O)NCCNc2ncc(-c3cc(C)cc(F)c3)c(N3CCC(N)CC3)c2-c2nc3ccc(Cl)cc3[nH]2)C(C)C)c(O[C@@H]2O[C@H](C(=O)N3CCC(C(=O)O)CC3)[C@@H](O)[C@H](O)[C@H]2O)c1)C(C)C (stereo partly drawn) [Compound 235] | 4.4 nM | 14 nM | 0.11 nM
CC[C@H](C)[C@@H]([C@@H](CC(=O)N1CCC[C@H]1[C@H](OC)[C@@H](C)C(=O)N[C@H](C)[C@@H](O)c1ccccc1)OC)N(C)C(=O)[C@@H](NC(=O)[C@H](C(C)C)N(C)C(=O)OCc1ccc(NC(=O)[C@H](C)NC(=O)[C@@H](NC(=O)CCOCCC(=O)NCCN(C)c2ncc(-c3cc(C)cc(F)c3)c(N3CCC(N)CC3)c2-c2nc3ccc(Cl)cc3[nH]2)C(C)C)c(O[C@@H]2O[C@H](C(=O)O)[C@@H](O)[C@H](O)[C@H]2O)c1)C(C)C [Compound 125] | 48 nM | 580 nM | 0.59 nM
CC[C@H](C)[C@@H]([C@@H](CC(=O)N1CCC[C@H]1[C@H](OC)[C@@H](C)C(=O)N[C@H](C)[C@@H](O)c1ccccc1)OC)N(C)C(=O)[C@@H](NC(=O)[C@H](C(C)C)N(C)C(=O)OCc1ccc(NC(=O)[C@H](CCCNC(N)=O)NC(=O)[C@@H](NC(=O)C[C@@H](N)C(=O)NCCOCCC(=O)NCCNc2ncc(-c3cc(C)cc(F)c3)c(N3CCC(N)CC3)c2-c2nc3ccc(Cl)cc3[nH]2)C(C)C)cc1C(=O)N1CC(C(=O)O)C1)C(C)C [Compound 73] | 3.1 nM | 110 nM | 0.06 nM
CC[C@H](C)[C@@H]([C@@H](CC(=O)N1CCC[C@H]1[C@H](OC)[C@@H](C)C(=O)N[C@H](C)[C@@H](O)c1ccccc1)OC)N(C)C(=O)[C@@H](NC(=O)[C@H](C(C)C)N(C)C(=O)OCc1ccc(NC(=O)[C@H](CCCNC(N)=O)NC(=O)[C@@H](NC(=O)c2cc(NCCOCCC(=O)N(C)CC(=O)NCCNc3ncc(-c4cc(C)cc(F)c4)c(N4CCC(N)CC4)c3-c3nc4ccc(Cl)cc4[nH]3)cc(C(=O)NCC(=O)O)c2)C(C)C)cc1)C(C)C [Compound 162] | 4.7 nM | 60 nM | 0.27 nM
CC[C@H](C)[C@@H]([C@@H](CC(=O)N1CCC[C@H]1[C@H](OC)[C@@H](C)C(=O)N[C@H](C)[C@@H](O)c1ccccc1)OC)N(C)C(=O)[C@@H](NC(=O)[C@H](C(C)C)N(C)C(=O)OCc1ccc(NC(=O)[C@H](CCCNC(N)=O)NC(=O)C2(NC(=O)CCOCCC(=O)NCCNc3ncc(-c4cc(C)cc(F)c4)c(N4CCC(N)CC4)c3-c3nc4ccc(Cl)cc4[nH]3)CCC2)c(O[C@H]2O[C@H](C(=O)NCC(=O)O)[C@@H](O)[C@H](O)[C@H]2O)c1)C(C)C [Compound 210] | 2.8 nM | 2300 nM | 0.051 nM
CC[C@H](C)[C@@H]([C@@H](CC(=O)N1CCC[C@H]1[C@H](OC)[C@@H](C)C(=O)N[C@H](C)[C@@H](O)c1ccccc1)OC)N(C)C(=O)[C@@H](NC(=O)[C@H](C(C)C)N(C)C(=O)OCc1ccc(NC(=O)[C@H](C)NC(=O)[C@@H](NC(=O)CCOCCC(=O)NCCNc2ncc(-c3cc(C)cc(F)c3)c(N3CCC(N)CC3)c2-c2nc3ccc(F)cc3[nH]2)C(C)C)c(O[C@@H]2O[C@H](C(=O)O)[C@@H](O)[C@H](O)[C@H]2O)c1)C(C)C [Compound 138] | 4.4 nM | 20 nM | 0.072 nM
CC[C@H](C)[C@@H]([C@@H](CC(=O)N1CCC[C@H]1[C@H](OC)[C@@H](C)C(=O)N[C@H](C)[C@@H](O)c1ccccc1)OC)N(C)C(=O)[C@@H](NC(=O)[C@H](C(C)C)N(C)C(=O)OCc1ccc(NC(=O)[C@H](CCCNC(N)=O)NC(=O)[C@@H](NC(=O)c2cn(CCOCCC(=O)NCCNc3ncc(-c4cc(C)cc(F)c4)c(N4CCC(N)CC4)c3-c3nc4ccc(Cl)cc4[nH]3)nn2)C(C)C)cc1)C(C)C [Compound 142] | 6.3 nM | 790 nM | 0.37 nM
CC[C@H](C)[C@@H]([C@@H](CC(=O)N1CCC[C@H]1[C@H](OC)[C@@H](C)C(=O)N[C@H](C)[C@@H](O)c1ccccc1)OC)N(C)C(=O)[C@@H](NC(=O)[C@H](C(C)C)N(C)C(=O)OCc1ccc(NC(=O)[C@H](C)NC(=O)[C@@H](NC(=O)[C@H](CCc2nnn[nH]2)NC(=O)CCOCCC(=O)NCCNc2ncc(-c3cc(C)cc(F)c3)c(N3CCC(N)CC3)c2-c2nc3ccc(Cl)cc3[nH]2)C(C)C)cc1C(=O)NCCN)C(C)C [Compound 66] | 5.6 nM | 6.8 nM | 0.14 nM
CC[C@H](C)[C@@H]([C@@H](CC(=O)N1CCC[C@H]1[C@H](OC)[C@@H](C)C(=O)N[C@H](C)[C@@H](O)c1ccccc1)OC)N(C)C(=O)[C@H](C)NC(=O)[C@H](C(C)C)N(C)C(=O)OCc1ccc(NC(=O)[C@H](C)NC(=O)[C@@H](NC(=O)CCOCCNC(=O)CCNc2ncc(-c3cc(C)cc(F)c3)c(N3CCC(N)CC3)c2-c2nc3ccc(Cl)cc3[nH]2)C(C)C)c(O[C@@H]2O[C@H](C(=O)O)[C@@H](O)[C@H](O)[C@H]2O)c1 [Compound 194] | 7.6 nM | 21 nM | 0.16 nM
CC[C@H](C)[C@@H]([C@@H](CC(=O)N1CCC[C@H]1[C@H](OC)[C@@H](C)C(=O)N[C@H](C)[C@@H](O)c1ccccc1)OC)N(C)C(=O)[C@@H](NC(=O)[C@H](C(C)C)N(C)C(=O)OCc1ccc(NC(=O)[C@H](CCCNC(N)=O)NC(=O)[C@@H](NC(=O)C[C@@H](N)C(=O)NCCOCCNC(=O)c2cc(NCCOCCC(=O)NCCNc3ncc(-c4cc(C)cc(F)c4)c(N4CCC(N)CC4)c3-c3nc4cc(F)cc(OC)c4[nH]3)cc(C(=O)NCC(=O)O)c2)C(C)C)cc1)C(C)C [Compound 164] | 4.1 nM | 27 nM | 0.35 nM
CC[C@H](C)[C@@H]([C@@H](CC(=O)N1CCC[C@H]1[C@H](OC)[C@@H](C)C(=O)N[C@H](C)[C@@H](O)c1ccccc1)OC)N(C)C(=O)[C@@H](NC(=O)[C@H](C(C)C)N(C)C(=O)OCc1ccc(NC(=O)[C@H](CCCNC(N)=O)NC(=O)[C@@H](NC(=O)CCOCCC(=O)NCCNc2ncc(-c3cc(C)cc(F)c3)c(N3CCC(N)CC3)c2-c2nc3ccc(Cl)cc3[nH]2)C(C)C)c(O[C@@H]2O[C@H](C(=O)NCCOCCC(=O)O)[C@@H](O)[C@H](O)[C@H]2O)c1)C(C)C [Compound 230] | 4.2 nM | 14 nM | 0.095 nM
CC[C@H](C)[C@@H]([C@@H](CC(=O)N1CCC[C@H]1[C@H](OC)[C@@H](C)C(=O)N[C@H](C)[C@@H](O)c1ccccc1)OC)N(C)C(=O)[C@@H](NC(=O)[C@H](C(C)C)N(C)C(=O)OCc1ccc(NC(=O)[C@H](C)NC(=O)[C@@H](NC(=O)CCOCCC(=O)NCCNc2ncc(-c3cc(C)cc(F)c3)c(N3CCC(N)CC3)c2-c2nc3ccc(Cl)cc3[nH]2)C(C)C)c(OCC(=O)O)c1)C(C)C [Compound 13] | 3.2 nM | 11 nM | 0.16 nM
